Data from patent US8163793B2, “Proline derivatives” (Hoffman-La Roche Inc., priority 2009, dated 2012).

Experiments:
Cathepsin S = Cathepsin S (UniProt P25774); experiment: Cathepsin enzyme inhibition assay (fluorogenic peptide substrate Z-Val-Val-Arg-AMC), Cathepsin S; format: biochemical, human and mouse; conditions: enzyme 1 nM, substrate 20 μM, pH 6.5; read-out: CatS IC50
Procedure, shortened: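 Human or mouse cathepsin S (1 nM) was run in 100 mM potassium phosphate pH 6.5 with 5 mM EDTA, 0.001% Triton X-100 and 5 mM DTT. The rise in AMC fluorescence from cleavage was measured, and IC50 values were calculated by standard methods and expressed in μM.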

Cat L = Cat L (UniProt P07711); experiment: Cathepsin enzyme inhibition assay (fluorogenic peptide substrate Z-Val-Val-Arg-AMC), Cathepsin L; format: biochemical, human and mouse; conditions: enzyme 1 nM, substrate 20 μM, pH 6.5; read-out: CatL IC50
Procedure, shortened: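 Cathepsin L at 1 nM was mixed with compound, then started with 20 μM Z-Val-Val-Arg-AMC in pH 6.5 potassium phosphate with EDTA, Triton X-100 and 5 mM DTT. AMC fluorescence (ex 360/em 465 nm) was followed over 20 min. IC50 is given in μM.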

| SMILES | IC50 (Cathepsin S) | IC50 (Cat L) |
| --- | --- | --- |
| N#CC1(NC(=O)[C@@H]2C[C@@H](S(=O)(=O)c3ccc(OCC(F)(F)F)cc3Cl)CN2C(=O)C2(c3ccc(F)cc3)CC2)CC1 [Example 295, (2S,4R)-4-[2-Chloro-4-(2,2,2-trifluoro-ethoxy)-benzenesulfonyl]-1-[1-(4-fluoro-phenyl)-cyclopropanecarbonyl]-pyrrolidine-2-carboxylic acid (1-cyano-cyclopropyl)-amide] | 0.03 nM | 925 nM |
| CC(C)(C)N1CCN(c2ccc(S(=O)(=O)[C@@H]3C[C@@H](C(=O)NC4(C#N)CC4)N(C(=O)C4(C(F)(F)F)CC4)C3)c(Cl)c2)CC1 [Example 296, (2S,4R)-4-[4-(4-tert-Butyl-piperazin-1-yl)-2-chloro-benzenesulfonyl]-1-(1-trifluoromethyl-cyclopropanecarbonyl)-pyrrolidine-2-carboxylic acid (1-cyano-cyclopropyl)-amide] | 0.123 nM | 1180 nM |
| COCCN1CCN(c2ccc(S(=O)(=O)[C@@H]3C[C@@H](C(=O)NC4(C#N)CC4)N(C(=O)C4(C(F)(F)F)CC4)C3)c(Cl)c2)CC1 [Example 297, (2S,4R)-4-{2-Chloro-4-[4-(2-methoxy-ethyl)-piperazin-1-yl]-benzenesulfonyl}-1-(1-trifluoromethyl-cyclopropanecarbonyl)-pyrrolidine-2-carboxylic acid (1-cyano-cyclopropyl)-amide] | 0.08 nM | 1340 nM |
| N#CC1(NC(=O)[C@@H]2C[C@@H](S(=O)(=O)c3ccc(N4CCN(C5CC5)CC4)cc3Cl)CN2C(=O)C2(C(F)(F)F)CC2)CC1 [Example 298, (2S,4R)-4-[2-Chloro-4-(4-cyclopropyl-piperazin-1-yl)-benzenesulfonyl]-1-(1-trifluoromethyl-cyclopropanecarbonyl)-pyrrolidine-2-carboxylic acid (1-cyano-cyclopropyl)-amide] | 0.22 nM | 1580 nM |
| N#CC1(NC(=O)[C@@H]2C[C@@H](S(=O)(=O)c3ccc(N4CCN5CCC[C@H]5C4)cc3Cl)CN2C(=O)C2(C(F)(F)F)CC2)CC1 [Example 299, (2S,4R)-4-((S)-2-Chloro-4-hexahydro-pyrrolo[1,2-a]pyrazin-2-yl-benzenesulfonyl)-1-(1-trifluoromethyl-cyclopropanecarbonyl)-pyrrolidine-2-carboxylic acid (1-cyano-cyclopropyl)-amide] | 0.17 nM | 1180 nM |
| Cc1cc(N2C[C@H](S(=O)(=O)c3ccccc3C(F)(F)F)C[C@H]2C(=O)NC2(C#N)CC2)n(C)n1 [Example 300, (2S,4R)-1-(2,5-Dimethyl-2H-pyrazol-3-yl)-4-(2-trifluoromethyl-benzenesulfonyl)-pyrrolidine-2-carboxylic acid (1-cyano-cyclopropyl)-amide] | 0.885 nM | 50700 nM |
| N#CC1(NC(=O)[C@@H]2C[C@@H](S(=O)(=O)c3ccc(N4CCn5cnnc5C4)cc3Cl)CN2C(=O)C2(C(F)(F)F)CC2)CC1 [Example 301, (2S,4R)-4-[2-Chloro-4-(5,6-dihydro-8H-[1,2,4]triazolo[4,3-a]pyrazin-7-yl)-benzenesulfonyl]-1-(1-trifluoromethyl-cyclopropanecarbonyl)-pyrrolidine-2-carboxylic acid (1-cyano-cyclopropyl)-amide] | 0.12 nM | 1540 nM |
| N#CC1(NC(=O)[C@@H]2C[C@@H](S(=O)(=O)c3ccc(OCC(F)(F)F)cc3Cl)CN2C(=O)C2(c3ccc(Cl)cc3)CCCC2)CC1 [Example 302, (2S,4R)-1-[1-(4-Chloro-phenyl)-cyclopentanecarbonyl]-4-[2-chloro-4-(2,2,2-trifluoro-ethoxy)-benzenesulfonyl]-pyrrolidine-2-carboxylic acid (1-cyano-cyclopropyl)-amide] | 0.03 nM | 575 nM |
| N#CC1(NC(=O)[C@@H]2C[C@@H](S(=O)(=O)c3ccc(OCC(F)(F)F)cc3Cl)CN2C(=O)C2(c3ccccc3)CCCCC2)CC1 [Example 303, (2S,4R)-4-[2-Chloro-4-(2,2,2-trifluoro-ethoxy)-benzenesulfonyl]-1-(1-phenyl-cyclohexanecarbonyl)-pyrrolidine-2-carboxylic acid (1-cyano-cyclopropyl)-amide] | 0.03 nM | 1480 nM |
| Cc1ccc(C2(C(=O)N3C[C@H](S(=O)(=O)c4ccc(OCC(F)(F)F)cc4Cl)C[C@H]3C(=O)NC3(C#N)CC3)CC2)cc1 [Example 304, (2S,4R)-4-[2-Chloro-4-(2,2,2-trifluoro-ethoxy)-benzenesulfonyl]-1-(1-p-tolyl-cyclopropanecarbonyl)-pyrrolidine-2-carboxylic acid (1-cyano-cyclopropyl)-amide] | 0.445 nM | 805 nM |
| Cc1cc(N2C[C@H](S(=O)(=O)c3ccc(OCC(F)(F)F)cc3C(F)(F)F)C[C@H]2C(=O)NC2(C#N)CC2)n(-c2ccc(C(F)(F)F)cc2)n1 [Example 306, (2S,4R)-1-[5-Methyl-2-(4-trifluoromethyl-phenyl)-2H-pyrazol-3-yl]-4-[4-(2,2,2-trifluoro-ethoxy)-2-trifluoromethyl-benzenesulfonyl]-pyrrolidine-2-carboxylic acid (1-cyano-cyclopropyl)-amide] | 0.555 nM | 64500 nM |
| Cc1cc(N2C[C@H](S(=O)(=O)c3ccccc3C(F)(F)F)C[C@H]2C(=O)NC2(C#N)CC2)n(C2CCOCC2)n1 [Example 307, (2S,4R)-1-[5-Methyl-2-(tetrahydro-pyran-4-yl)-2H-pyrazol-3-yl]-4-(2-trifluoromethyl-benzenesulfonyl)-pyrrolidine-2-carboxylic acid (1-cyano-cyclopropyl)-amide] | 0.205 nM | 52100 nM |
| N#CC1(NC(=O)[C@@H]2C[C@@H](S(=O)(=O)c3ccc(OCC(F)(F)F)cc3Cl)CN2C(=O)C2(c3ccc(C(F)(F)F)cc3)CC2)CC1 [Example 310, (2S,4R)-4-[2-Chloro-4-(2,2,2-trifluoro-ethoxy)-benzenesulfonyl]-1-[1-(4-trifluoromethyl-phenyl)-cyclopropanecarbonyl]-pyrrolidine-2-carboxylic acid (1-cyano-cyclopropyl)-amide] | 0.26 nM | 220 nM |
| N#CC1(NC(=O)[C@@H]2C[C@@H](S(=O)(=O)c3ccc(OCC(F)(F)F)cc3Cl)CN2C(=O)C2(c3cccc(C(F)(F)F)c3)CC2)CC1 [Example 311, (2S,4R)-4-[2-Chloro-4-(2,2,2-trifluoro-ethoxy)-benzenesulfonyl]-1-[1-(3-trifluoromethyl-phenyl)-cyclopropanecarbonyl]-pyrrolidine-2-carboxylic acid (1-cyano-cyclopropyl)-amide] | 0.155 nM | 745 nM |
| N#CC1(NC(=O)[C@@H]2C[C@@H](S(=O)(=O)c3ccccc3Cl)CN2S(=O)(=O)c2ccc3ccccc3c2)CC1 [Example 313, (2S,4R)-4-(2-Chloro-benzenesulfonyl)-1-(naphthalene-2-sulfonyl)-pyrrolidine-2-carboxylic Acid (1-cyano-cyclopropyl)-amide] | 0.46 nM | 1390 nM |
| N#CC1(NC(=O)[C@@H]2C[C@@H](S(=O)(=O)c3ccc(OCC(F)(F)F)cc3Cl)CN2C(=O)C2(c3ccc(Cl)cc3)CCCCC2)CC1 [Example 314, (2S,4R)-1-[1-(4-Chloro-phenyl)-cyclohexanecarbonyl]-4-[2-chloro-4-(2,2,2-trifluoro-ethoxy)-benzenesulfonyl]-pyrrolidine-2-carboxylic acid (1-cyano-cyclopropyl)-amide] | 0.37 nM | 1680 nM |
| N#CC1(NC(=O)[C@@H]2C[C@@H](S(=O)(=O)c3ccccc3Cl)CN2S(=O)(=O)c2ccc(Cl)cc2)CC1 [Example 315, (2S,4R)-4-(2-Chloro-benzenesulfonyl)-1-(4-chloro-benzenesulfonyl)-pyrrolidine-2-carboxylic Acid (1-cyano-cyclopropyl)-amide] | 0.39 nM | 2500 nM |
| N#CC1(NC(=O)[C@@H]2C[C@@H](S(=O)(=O)c3ccccc3Cl)CN2S(=O)(=O)c2ccc(-c3ccccc3)cc2)CC1 [Example 316, (2S,4R)-1-(Biphenyl-4-sulfonyl)-4-(2-chloro-benzenesulfonyl)-pyrrolidine-2-carboxylic acid (1-cyano-cyclopropyl)-amide] | 0.3 nM | 5240 nM |
| Cc1cc(N2C[C@H](S(=O)(=O)c3ccccc3C(F)(F)F)C[C@H]2C(=O)NC2(C#N)CC2)n(-c2cccnn2)n1 [Example 317, (2S,4R)-1-(5-Methyl-2-pyridazin-3-yl-2H-pyrazol-3-yl)-4-(2-trifluoromethyl-benzenesulfonyl)-pyrrolidine-2-carboxylic acid (1-cyano-cyclopropyl)-amide] | 22.8 nM | ≥ 25000 nM |
| Cc1cc(N2C[C@H](S(=O)(=O)c3ccccc3C(F)(F)F)C[C@H]2C(=O)NC2(C#N)CC2)n(C2CCCCC2)n1 [Example 318, (2S,4R)-1-(2-Cyclohexyl-5-methyl-2H-pyrazol-3-yl)-4-(2-trifluoromethyl-benzenesulfonyl)-pyrrolidine-2-carboxylic acid (1-cyano-cyclopropyl)-amide] | 0.437 nM | 11300 nM |
| Cc1cc(N2C[C@H](S(=O)(=O)c3ccccc3C(F)(F)F)C[C@H]2C(=O)NC2(C#N)CC2)n(Cc2ccccc2)n1 [Example 319, (2S,4R)-1-(2-Benzyl-5-methyl-2H-pyrazol-3-yl)-4-(2-trifluoromethyl-benzenesulfonyl)-pyrrolidine-2-carboxylic acid (1-cyano-cyclopropyl)-amide] | 1.43 nM | 40800 nM |
| Cc1cc(N2C[C@H](S(=O)(=O)c3ccccc3C(F)(F)F)C[C@@H]2C(=O)NC2(C#N)CC2)n(C2CCCCC2)n1 [Example 320, (2R,4R)-1-(2-Cyclohexyl-5-methyl-2H-pyrazol-3-yl)-4-(2-trifluoromethyl-benzenesulfonyl)-pyrrolidine-2-carboxylic acid (1-cyano-cyclopropyl)-amide] | 80.5 nM | ≥ 25000 nM |
